Assay results taken from ChEMBL document CHEMBL1135036, “Synthesis and antibacterial evaluation of novel 2-[N-Imidoylpyrrolidinyl] carbapenems” (Bioorg Med Chem Lett, 2002).
Converted amounts (≈) assume the structure as drawn.

What was measured:
Staphylococcus aureus [1] = test: In vitro antibacterial activity against Staphylococcus aureus 3004 Methicillin-resistant Staphylococcus aureus.; type: functional
[2] = Tested for urinary recovery in mice after subcutaneous administration of 20 mg/Kg; type: ADME, organism-based; conditions: mouse, urine, sc, read-out: Recovery
Pseudomonas aeruginosa [3] = test: In vitro antibacterial activity against Ps. auruginosa 26.; type: functional
[4] = target: T1, Dipeptidase 1 (Sus scrofa) (UniProt P22412); test: Tested for stability of compound to swine renal DHP-1 relative to imipenem (IMP); type: functional
T1 sequence (whole entry): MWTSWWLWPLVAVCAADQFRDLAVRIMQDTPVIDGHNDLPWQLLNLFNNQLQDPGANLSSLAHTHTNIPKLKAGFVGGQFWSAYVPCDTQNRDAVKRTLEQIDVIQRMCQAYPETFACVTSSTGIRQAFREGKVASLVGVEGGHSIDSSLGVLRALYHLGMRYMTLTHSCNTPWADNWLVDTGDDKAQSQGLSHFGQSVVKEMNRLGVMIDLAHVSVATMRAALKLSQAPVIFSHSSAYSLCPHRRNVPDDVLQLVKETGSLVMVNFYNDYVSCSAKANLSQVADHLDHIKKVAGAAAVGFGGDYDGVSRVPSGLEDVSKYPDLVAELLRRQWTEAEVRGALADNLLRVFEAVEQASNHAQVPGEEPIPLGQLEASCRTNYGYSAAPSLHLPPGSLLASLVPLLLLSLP

Staphylococcus aureus [5] = test: In vitro antibacterial activity against Staphylococcus aureus 209P JC-1.; type: functional
Escherichia coli = test: In vitro antibacterial activity against Escherichia coli NIHJ JC-2.; type: functional
Proteus vulgaris = test: In vitro antibacterial activity against Proteus vulgaris IAM 1025.; type: functional
[6] = target: T2, Dipeptidase 1 (Homo sapiens) (UniProt P16444); test: Compound stability against human renal DHP-1 relative to imipenem (IMP); type: functional
T2 sequence (whole entry): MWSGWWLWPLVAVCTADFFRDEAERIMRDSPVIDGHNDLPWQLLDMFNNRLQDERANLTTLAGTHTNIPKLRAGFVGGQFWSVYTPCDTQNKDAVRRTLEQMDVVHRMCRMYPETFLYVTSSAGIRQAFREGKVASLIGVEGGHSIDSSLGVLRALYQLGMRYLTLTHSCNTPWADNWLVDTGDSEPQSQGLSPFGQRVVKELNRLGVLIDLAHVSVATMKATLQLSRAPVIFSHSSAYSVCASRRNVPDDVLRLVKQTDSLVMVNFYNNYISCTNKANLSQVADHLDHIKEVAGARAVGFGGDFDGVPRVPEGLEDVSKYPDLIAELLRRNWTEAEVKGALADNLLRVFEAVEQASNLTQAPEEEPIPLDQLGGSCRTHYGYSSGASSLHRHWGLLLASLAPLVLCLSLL

Pseudomonas aeruginosa [7] = test: Tested in vitro for antibacterial activity against Ps. aeruginosa 26; type: functional
[8] = target: T2, Dipeptidase 1 (Homo sapiens); test: Tested for stability of compound to human renal DHP-1 relative to imipenem (IMP); type: functional

Structure (SMILES)	MIC (Staphylococcus aureus [1])	dose excreted [2]	MIC (Pseudomonas aeruginosa [3])	Stability [4]	MIC (Staphylococcus aureus [5])	MIC (Escherichia coli)	MIC (Proteus vulgaris)	Stability [6]	MIC (Pseudomonas aeruginosa [7])	Stability [8]
C[C@@H](O)[C@H]1C(=O)N2C(C(=O)O)=C([C@@H]3CCN(C(=N)CO)C3)C[C@H]12	25 µg/mL (≈ 77.3 µM)	52%	0.78 µg/mL (≈ 2.41 µM)	13%	< 0.025 µg/mL	0.39 µg/mL (≈ 1.21 µM)	3.13 µg/mL (≈ 9.68 µM)			
C[C@@H](O)[C@H]1C(=O)N2C(C(=O)O)=C([C@@H]3CCN(C(=N)CNC(N)=O)C3)C[C@H]12	25 µg/mL (≈ 68.4 µM)	47%	0.39 µg/mL (≈ 1.07 µM)		< 0.025 µg/mL	0.2 µg/mL (≈ 0.547 µM)	3.13 µg/mL (≈ 8.57 µM)	20%		
C[C@@H](O)[C@H]1C(=O)N2C(C(=O)O)=C([C@@H]3CCN(C(=N)CC(N)=O)C3)C[C@H]12	6.25 µg/mL (≈ 17.8 µM)	43%	0.39 µg/mL (≈ 1.11 µM)	13%	< 0.025 µg/mL	0.39 µg/mL (≈ 1.11 µM)	1.56 µg/mL (≈ 4.45 µM)	14%		
C[C@@H](O)[C@H]1C(=O)N2C(C(=O)O)=C([C@@H]3CCN(C4=NCCC4)C3)C[C@H]12	12.5 µg/mL (≈ 37.5 µM)	50%	0.39 µg/mL (≈ 1.17 µM)	8.4%	< 0.025 µg/mL	0.2 µg/mL (≈ 0.6 µM)	1.56 µg/mL (≈ 4.68 µM)	28%		
C[C@@H](O)[C@H]1C(=O)N2C(C(=O)O)=C([C@@H]3CCN(C=N)C3)C[C@H]12	25 µg/mL (≈ 85.2 µM)	41%	0.2 µg/mL (≈ 0.682 µM)	15%	< 0.025 µg/mL	0.1 µg/mL (≈ 0.341 µM)	1.56 µg/mL (≈ 5.32 µM)	39%		
C[C@@H](O)[C@H]1C(=O)N2C(C(=O)O)=C(SCCN=CN)C[C@H]12 [IMIPENEM ANHYDROUS]		29%								
CC(=N)N1CC[C@H](SC2=C(C(=O)O)N3C(=O)[C@H]([C@@H](C)O)[C@H]3C2)C1 [PANIPENEM]	50 µg/mL (≈ 147 µM)	25%	0.39 µg/mL (≈ 1.15 µM)		0.025 µg/mL (≈ 0.0737 µM)	0.2 µg/mL (≈ 0.589 µM)	1.56 µg/mL (≈ 4.6 µM)			
C[C@@H](O)[C@H]1C(=O)N2C(C(=O)O)=C(C3CCNCC3)C[C@H]12	> 100 µg/mL	43%		18%	0.05 µg/mL (≈ 0.178 µM)	1.56 µg/mL (≈ 5.56 µM)	12.5 µg/mL (≈ 44.6 µM)		0.78 µg/mL (≈ 2.78 µM)	
C[C@@H](O)[C@H]1C(=O)N2C(C(=O)O)=C([C@H]3CCNC3)C[C@H]12	100 µg/mL (≈ 376 µM)	46%	0.78 µg/mL (≈ 2.93 µM)	16%	< 0.025 µg/mL	0.39 µg/mL (≈ 1.46 µM)	6.25 µg/mL (≈ 23.5 µM)	78%		
C[C@@H](O)[C@H]1C(=O)N2C(C(=O)O)=C(C3CCNC3)C[C@H]12 (stereo partly drawn)	100 µg/mL (≈ 376 µM)	42%	0.78 µg/mL (≈ 2.93 µM)	13%	< 0.025 µg/mL	0.39 µg/mL (≈ 1.46 µM)	12.5 µg/mL (≈ 46.9 µM)	58%		
C[C@@H](O)[C@H]1C(=O)N2C(C(=O)O)=C(C3CNC3)C[C@H]12	100 µg/mL (≈ 396 µM)	45%	1.56 µg/mL (≈ 6.18 µM)	2%	0.05 µg/mL (≈ 0.198 µM)	1.56 µg/mL (≈ 6.18 µM)	3.13 µg/mL (≈ 12.4 µM)			
C[C@@H](O)[C@H]1C(=O)N2C(C(=O)O)=C([C@@H]3CCN(C(=N)COC(N)=O)C3)C[C@H]12	6.25 µg/mL (≈ 17.1 µM)	42%	0.78 µg/mL (≈ 2.13 µM)		< 0.025 µg/mL	0.1 µg/mL (≈ 0.273 µM)	1.56 µg/mL (≈ 4.26 µM)	13%		
C/N=C/N1CC[C@@H](C2=C(C(=O)O)N3C(=O)[C@H]([C@@H](C)O)[C@H]3C2)C1	3.13 µg/mL (≈ 10.2 µM)	48%	0.39 µg/mL (≈ 1.27 µM)	7.8%	< 0.025 µg/mL	0.2 µg/mL (≈ 0.651 µM)	0.78 µg/mL (≈ 2.54 µM)	91%		
C[C@@H](O)[C@H]1C(=O)N2C(C(=O)O)=C([C@@H]3CCNC3)C[C@H]12	50 µg/mL (≈ 188 µM)	37%	0.39 µg/mL (≈ 1.46 µM)	8.8%	< 0.025 µg/mL	0.2 µg/mL (≈ 0.751 µM)	6.25 µg/mL (≈ 23.5 µM)	48%		
C/C(=C\[C@@]1(C)CCCN1)C1=C(C(=O)O)N2C(=O)[C@H]([C@@H](C)O)[C@H]2C1	50 µg/mL (≈ 156 µM)	61%	3.13 µg/mL (≈ 9.77 µM)	4.3%	< 0.025 µg/mL	0.39 µg/mL (≈ 1.22 µM)	1.56 µg/mL (≈ 4.87 µM)	45%		
CC(=N)N1CC[C@@H](C2=C(C(=O)O)N3C(=O)[C@H]([C@@H](C)O)[C@H]3C2)C1	6.25 µg/mL (≈ 20.3 µM)	44%	0.78 µg/mL (≈ 2.54 µM)	8.4%	< 0.025 µg/mL	0.2 µg/mL (≈ 0.651 µM)	1.56 µg/mL (≈ 5.08 µM)	34%		
C[C@@H](O)[C@H]1C(=O)N2C(C(=O)O)=C(C3CCCNC3)C[C@H]12 (stereo partly drawn)	50 µg/mL (≈ 178 µM)	59%	1.56 µg/mL (≈ 5.56 µM)		< 0.025 µg/mL	0.39 µg/mL (≈ 1.39 µM)	25 µg/mL (≈ 89.2 µM)			4.4%
C[C@@H](O)[C@H]1C(=O)N2C(C(=O)O)=C(SCCNC=N)C[C@H]12 [IMIPENEM ANHYDROUS]	100 µg/mL (≈ 334 µM)		0.78 µg/mL (≈ 2.61 µM)	100%	< 0.025 µg/mL	0.78 µg/mL (≈ 2.61 µM)	3.1 µg/mL (≈ 10.4 µM)	100%		
